± gives the expanded uncertainty stated by the source.
Details: Liquid; for mass density: Vibrating tube method; for speed of sound: Frequency=5 MHz, Single path-length method

CCC(=O)[O-].[NH3+]CCO [2-hydroxyethan-1-aminium propionate]
mass density (298.08 K, 10000 kPa): 1124.9 ± 1.4 kg/m3 | mass density (298.1 K, 30000 kPa): 1131.1 ± 1.5 kg/m3 | mass density (298.11 K, 15000 kPa): 1127.6 ± 1.4 kg/m3 | mass density (298.13 K, 35000 kPa): 1132.5 ± 1.5 kg/m3 | mass density (298.15 K, 20000 kPa): 1128.2 ± 1.4 kg/m3 | mass density (298.15 K, 25000 kPa): 1129.4 ± 1.4 kg/m3 | mass density (298.16 K, 100 kPa): 1121.1 ± 1.3 kg/m3 | mass density (303.03 K, 30000 kPa): 1126.3 ± 1.5 kg/m3 | mass density (303.07 K, 25000 kPa): 1124.9 ± 1.4 kg/m3 | mass density (303.07 K, 35000 kPa): 1127.2 ± 1.5 kg/m3 | mass density (303.09 K, 10000 kPa): 1121 ± 1.4 kg/m3 | mass density (303.09 K, 15000 kPa): 1121.8 ± 1.4 kg/m3 | mass density (303.1 K, 20000 kPa): 1123.3 ± 1.4 kg/m3 | speed of sound (303.15 K, 100 kPa): 1554.7 ± 3.8 m/s | mass density (303.15 K, 100 kPa): 1116 ± 1.3 kg/m3 | speed of sound (303.15 K, 1000 kPa): 1558.7 ± 3.8 m/s | speed of sound (303.15 K, 2000 kPa): 1562.7 ± 3.8 m/s | speed of sound (303.15 K, 3000 kPa): 1566.7 ± 3.8 m/s | speed of sound (303.15 K, 4000 kPa): 1570.7 ± 3.8 m/s | speed of sound (303.15 K, 5000 kPa): 1574.7 ± 3.8 m/s | speed of sound (303.15 K, 6000 kPa): 1578.8 ± 3.8 m/s | speed of sound (303.15 K, 7000 kPa): 1582.9 ± 3.8 m/s | speed of sound (303.15 K, 8000 kPa): 1587 ± 3.8 m/s | speed of sound (303.15 K, 9000 kPa): 1591.1 ± 3.8 m/s | speed of sound (303.15 K, 10000 kPa): 1595.2 ± 3.8 m/s | speed of sound (303.15 K, 11000 kPa): 1599.4 ± 3.8 m/s | speed of sound (303.15 K, 12000 kPa): 1602.1 ± 3.8 m/s | speed of sound (303.15 K, 13000 kPa): 1606.3 ± 3.8 m/s | speed of sound (303.15 K, 14000 kPa): 1610.5 ± 3.8 m/s | speed of sound (303.15 K, 15000 kPa): 1613.3 ± 3.8 m/s | speed of sound (303.15 K, 16000 kPa): 1617.6 ± 3.8 m/s | speed of sound (303.15 K, 17000 kPa): 1620.4 ± 3.8 m/s | speed of sound (303.15 K, 18000 kPa): 1624.6 ± 3.8 m/s | speed of sound (303.15 K, 19000 kPa): 1628.9 ± 3.8 m/s | speed of sound (303.15 K, 20000 kPa): 1633.2 ± 3.8 m/s | mass density (313.14 K, 100 kPa): 1105.3 ± 1.3 kg/m3 | speed of sound (313.15 K, 100 kPa): 1526.8 ± 3.8 m/s | speed of sound (313.15 K, 1000 kPa): 1531.9 ± 3.8 m/s | speed of sound (313.15 K, 2000 kPa): 1535.7 ± 3.8 m/s | speed of sound (313.15 K, 3000 kPa): 1539.5 ± 3.8 m/s | speed of sound (313.15 K, 4000 kPa): 1542.1 ± 3.8 m/s | speed of sound (313.15 K, 5000 kPa): 1546 ± 3.8 m/s | speed of sound (313.15 K, 6000 kPa): 1549.9 ± 3.8 m/s | speed of sound (313.15 K, 7000 kPa): 1553.8 ± 3.8 m/s | speed of sound (313.15 K, 8000 kPa): 1557.8 ± 3.8 m/s | speed of sound (313.15 K, 9000 kPa): 1561.7 ± 3.8 m/s | speed of sound (313.15 K, 10000 kPa): 1565.7 ± 3.8 m/s | speed of sound (313.15 K, 11000 kPa): 1569.7 ± 3.8 m/s | speed of sound (313.15 K, 12000 kPa): 1573.7 ± 3.8 m/s | speed of sound (313.15 K, 13000 kPa): 1577.7 ± 3.8 m/s | speed of sound (313.15 K, 14000 kPa): 1581.7 ± 3.8 m/s | speed of sound (313.15 K, 15000 kPa): 1585.8 ± 3.8 m/s | speed of sound (313.15 K, 16000 kPa): 1589.9 ± 3.8 m/s | speed of sound (313.15 K, 17000 kPa): 1594 ± 3.8 m/s | speed of sound (313.15 K, 18000 kPa): 1598.1 ± 3.8 m/s | speed of sound (313.15 K, 19000 kPa): 1602.2 ± 3.8 m/s | speed of sound (313.15 K, 20000 kPa): 1606.4 ± 3.8 m/s | mass density (313.16 K, 15000 kPa): 1111.3 ± 1.4 kg/m3 | mass density (313.17 K, 10000 kPa): 1110.2 ± 1.4 kg/m3 | mass density (313.17 K, 35000 kPa): 1117.8 ± 1.5 kg/m3 | mass density (313.18 K, 20000 kPa): 1113.3 ± 1.4 kg/m3 | mass density (313.18 K, 30000 kPa): 1116.2 ± 1.4 kg/m3 | mass density (313.19 K, 25000 kPa): 1114.8 ± 1.4 kg/m3 | mass density (323.09 K, 10000 kPa): 1098.3 ± 1.3 kg/m3 | mass density (323.1 K, 100 kPa): 1093 ± 1.3 kg/m3 | mass density (323.1 K, 25000 kPa): 1103.9 ± 1.4 kg/m3 | mass density (323.12 K, 30000 kPa): 1105.5 ± 1.4 kg/m3 | mass density (323.14 K, 15000 kPa): 1099.7 ± 1.4 kg/m3 | mass density (323.14 K, 20000 kPa): 1102 ± 1.4 kg/m3 | mass density (323.14 K, 35000 kPa): 1107.3 ± 1.4 kg/m3 | speed of sound (323.15 K, 100 kPa): 1506.1 ± 3.8 m/s | speed of sound (323.15 K, 1000 kPa): 1509.8 ± 3.8 m/s | speed of sound (323.15 K, 2000 kPa): 1513.6 ± 3.8 m/s | speed of sound (323.15 K, 3000 kPa): 1517.3 ± 3.8 m/s | speed of sound (323.15 K, 4000 kPa): 1521.1 ± 3.8 m/s | speed of sound (323.15 K, 5000 kPa): 1524.9 ± 3.8 m/s | speed of sound (323.15 K, 6000 kPa): 1528.7 ± 3.8 m/s | speed of sound (323.15 K, 7000 kPa): 1533.8 ± 3.8 m/s | speed of sound (323.15 K, 8000 kPa): 1537.6 ± 3.8 m/s | speed of sound (323.15 K, 9000 kPa): 1541.5 ± 3.8 m/s | speed of sound (323.15 K, 10000 kPa): 1545.4 ± 3.8 m/s | speed of sound (323.15 K, 11000 kPa): 1549.2 ± 3.8 m/s | speed of sound (323.15 K, 12000 kPa): 1553.2 ± 3.8 m/s | speed of sound (323.15 K, 13000 kPa): 1558.4 ± 3.8 m/s

Source: the NIST ThermoML archive (doi:10.1016/j.jct.2018.03.016)
